Reference: PubChem BioAssay (NCI)
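Step 1: Grow cells in 96-well plates. Step 2: Expose to compound for 48 hours at 5 concentrations. Step 3: Interpolate endpoints linearly; if unreached, use highest concentration. The concentration for 50% growth inhibition is given as GI50. TGI: total growth inhibition.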

How the values were obtained:
Test in all cases: growth of human tumour cells (NCI), 48 h; in the data active means GI50 below about 0.43 µM; inactive means the rest
[1] = test system: NCI-H460 lung
[2] = test system: HS 578T breast
[3] = test system: TK-10 renal
[4] = test system: UACC-62 melanoma
[5] = test system: KM12 colon
[6] = test system: HOP-62 NSCLC
[7] = test system: SNB-75 CNS
[8] = test system: K-562 leukemia
[9] = test system: CAKI-1 renal
[10] = test system: HT29 colon
[11] = test system: SK-OV-3 ovarian
[12] = test system: CCRF-CEM leukemia
[13] = test system: EKVX NSCLC
[14] = test system: RXF 393 renal
[15] = test system: SK-MEL-28 melanoma
[16] = test system: HOP-92 NSCLC
[17] = test system: HCC-2998 colon
[18] = test system: OVCAR-3 ovarian
[19] = test system: PC-3 prostate
[20] = test system: MDA-MB-435
[21] = test system: SK-MEL-5 melanoma
[22] = test system: IGROV1 ovarian
[23] = test system: MALME-3M melanoma
[24] = test system: NCI-H23 lung
[25] = test system: U251 CNS
[26] = test system: M14 melanoma
[27] = test system: OVCAR-4 ovarian
[28] = test system: MOLT-4 leukemia
[29] = test system: COLO 205 colon

Cc1cc2nc3cc(C)c(N)cc3[n+](-c3ccccc3)c2cc1N
> 46 µM: TGI [17]
17.6 µM: TGI [5]
30.7 µM: TGI [4]
> 63.5 µM: TGI [24]
27.8 µM: TGI [16]
67 µM: TGI [20]
> 100 µM: TGI [2] | TGI [3] | TGI [6] | TGI [7] | TGI [8] | TGI [9] | TGI [10] | TGI [11] | TGI [12] | TGI [13] | TGI [14] | TGI [19] | TGI [22] | TGI [25] | TGI [26] | TGI [27] | TGI [28]
79.3 µM: TGI [15]
5.4 µM: TGI [21]
51.1 µM: TGI [23]
19.7 µM: TGI [1]
inactive: GI50 [2] 10.6 µM | GI50 [3] 36.6 µM | GI50 [4] 6.19 µM | GI50 [5] 2070 nM | GI50 [6] 3.7 µM | GI50 [7] 2590 nM | GI50 [8] 3.39 µM | GI50 [9] > 100 µM | GI50 [10] 7.3 µM | GI50 [11] 24.8 µM | GI50 [12] 11.2 µM | GI50 [13] 2480 nM | GI50 [14] 17.5 µM | GI50 [15] 15.2 µM | GI50 [16] 3.88 µM | GI50 [17] 4.05 µM | GI50 [18] 2980 nM | GI50 [19] 3.63 µM | GI50 [20] 4.68 µM | GI50 [21] 773 nM | GI50 [22] 12.4 µM | GI50 [23] 3.98 µM | GI50 [24] 2770 nM | GI50 [25] 945 nM | GI50 [26] 21.2 µM | GI50 [27] 3.57 µM | GI50 [28] 6.5 µM | GI50 [29] 2550 nM
14.3 µM: TGI [29]
> 95.7 µM: TGI [18]
